Where “and” joins values, the source holds several entries; their conditions need not be identical. Identical values can stand only once. Like-named read-outs stand apart in the source and are kept apart here.
Assays:
Experiment in all cases: Disruption of BRAF RBD interaction with Ras (FRET / MOA assay, with Cyclophilin A)
Assay type in all cases: biochemical
[1] = molecular target: KRAS WT (Homo sapiens, UniProt P01116+P62937); details: KRAS WT; read-out: KRAS WT FRET data IC50
Excerpt: (§1) This protocol may also be executed substituting other Ras proteins or nucleotides.
(§2) The purpose of this biochemical assay was to measure the ability of test compounds to facilitate ternary complex formation between a nucleotide-loaded K-Ras isoform and Cyclophilin A; the resulting ternary complex disrupts binding to a BRAF^RBD construct, inhibiting K-Ras signaling through a RAF effector. Data is reported as IC50 values.
(§3) Compound was present in plate wells as a 10-point 3-fold dilution series starting at a final concentration of 30 μM. After incubation at 25° C. for 3 hours, a mixture of Anti-His Eu-W1024 and anti-GST allophycocyanin was then added to assay sample wells at final concentrations of 10 nM and 50 nM, respectively, and the reaction incubated for an additional 1.5 hours. […] Compounds that facilitate disruption of a K-Ras:RAF complex were identified as those eliciting a decrease in the TR-FRET ratio relative to DMSO control wells.
as §2, with “BRAF^RBDD” for “BRAF^RBD”

[2] = molecular target: KRAS G13C (Homo sapiens, UniProt P01116+P62937, G13C)
Sequence of KRAS G13C (P01116 1-169 isoform P01116-2 G13C): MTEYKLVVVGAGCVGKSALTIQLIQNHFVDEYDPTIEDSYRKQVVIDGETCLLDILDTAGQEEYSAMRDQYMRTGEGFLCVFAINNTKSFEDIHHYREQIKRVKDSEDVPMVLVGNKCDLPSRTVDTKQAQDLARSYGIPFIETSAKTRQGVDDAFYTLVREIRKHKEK
Sequence of KRAS G13C (P62937 whole entry): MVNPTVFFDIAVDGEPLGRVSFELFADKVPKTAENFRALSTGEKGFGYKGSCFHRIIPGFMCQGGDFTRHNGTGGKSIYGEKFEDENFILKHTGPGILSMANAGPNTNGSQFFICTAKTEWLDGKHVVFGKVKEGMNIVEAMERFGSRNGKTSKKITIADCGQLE
Excerpt: as §1, §2, §3
as §2, with “BRAF^RBDD” for “BRAF^RBD”

[3] = molecular target: KRAS G12C (Homo sapiens, UniProt P01116+P62937, G12C)
Sequence of KRAS G12C (P01116 1-169 isoform P01116-2 G12C): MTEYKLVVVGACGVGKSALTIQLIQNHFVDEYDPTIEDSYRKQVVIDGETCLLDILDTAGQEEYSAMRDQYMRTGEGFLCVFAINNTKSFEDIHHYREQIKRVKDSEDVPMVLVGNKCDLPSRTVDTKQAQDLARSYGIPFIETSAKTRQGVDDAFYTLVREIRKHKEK
Sequence of KRAS G12C (P62937 whole entry): as the sequence (P62937 whole entry) above
Excerpt: as §1, §2, §3
as §2, with “BRAF^RBDD” for “BRAF^RBD”

[4] = molecular target: KRAS G12D (Homo sapiens, UniProt P01116+P62937, G12D); details: read-out: KRAS G12D FRET data, IC50
Sequence of KRAS G12D (P01116 1-169 isoform P01116-2 G12D limits assumed): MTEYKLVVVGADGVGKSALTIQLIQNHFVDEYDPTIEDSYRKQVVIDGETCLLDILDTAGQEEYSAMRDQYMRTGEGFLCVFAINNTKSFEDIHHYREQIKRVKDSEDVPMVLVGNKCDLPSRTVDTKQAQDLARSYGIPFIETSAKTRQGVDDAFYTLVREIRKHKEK
Sequence of KRAS G12D (P62937 whole entry): as the sequence (P62937 whole entry) above
Excerpt: as §1, §2, §3
as §2, with “BRAF^RBDD” for “BRAF^RBD”

[5] = molecular target: KRAS G13D (Homo sapiens, UniProt P01116+P62937, G13D); details: KRAS G13D; read-out: KRAS G13D FRET data IC50
Sequence of KRAS G13D (P01116 1-169 isoform P01116-2 G13D limits assumed): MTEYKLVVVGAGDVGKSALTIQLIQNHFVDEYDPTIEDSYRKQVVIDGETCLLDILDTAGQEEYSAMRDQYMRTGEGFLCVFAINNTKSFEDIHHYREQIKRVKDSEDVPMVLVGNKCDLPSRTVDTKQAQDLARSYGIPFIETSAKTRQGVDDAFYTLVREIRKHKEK
Sequence of KRAS G13D (P62937 whole entry): as the sequence (P62937 whole entry) above
Excerpt: as §1, §2, §3
as §2, with “BRAF^RBDD” for “BRAF^RBD”

[6] = molecular target: KRAS G12S (Homo sapiens, UniProt P01116+P62937, G12S); details: read-out: KRAS G12S FRET data, IC50
Sequence of KRAS G12S (P01116 1-169 isoform P01116-2 G12S limits assumed): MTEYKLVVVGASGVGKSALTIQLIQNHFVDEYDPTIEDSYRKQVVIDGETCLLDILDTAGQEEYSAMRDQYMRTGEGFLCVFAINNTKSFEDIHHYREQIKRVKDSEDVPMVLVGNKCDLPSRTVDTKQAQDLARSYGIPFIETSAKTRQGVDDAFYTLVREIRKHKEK
Sequence of KRAS G12S (P62937 whole entry): as the sequence (P62937 whole entry) above
Excerpt: as §1, §2, §3
as §2, with “BRAF^RBDD” for “BRAF^RBD”

[7] = molecular target: KRAS G12V (Homo sapiens, UniProt P01116+P62937, G12V); details: KRAS G12V; read-out: KRAS G12V FRET data IC50
Sequence of KRAS G12V (P01116 1-169 isoform P01116-2 G12V limits assumed): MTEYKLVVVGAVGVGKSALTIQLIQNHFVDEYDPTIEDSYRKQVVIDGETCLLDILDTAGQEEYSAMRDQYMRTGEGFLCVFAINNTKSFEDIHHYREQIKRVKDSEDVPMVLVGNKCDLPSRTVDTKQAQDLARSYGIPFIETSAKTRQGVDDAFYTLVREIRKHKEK
Sequence of KRAS G12V (P62937 whole entry): as the sequence (P62937 whole entry) above
Excerpt: as §1, §2, §3
as §2, with “BRAF^RBDD” for “BRAF^RBD”

[8] = molecular target: NRAS G12C (Homo sapiens, UniProt P01111+P62937, G12C); details: NRAS G12C; read-out: NRAS G12C FRET data IC50
Sequence of NRAS G12C (P01111 whole entry G12C): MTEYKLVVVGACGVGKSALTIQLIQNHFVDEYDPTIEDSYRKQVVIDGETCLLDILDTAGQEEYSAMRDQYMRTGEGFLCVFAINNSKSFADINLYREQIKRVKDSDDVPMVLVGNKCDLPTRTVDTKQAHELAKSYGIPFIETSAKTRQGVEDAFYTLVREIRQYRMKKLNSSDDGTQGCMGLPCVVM
Sequence of NRAS G12C (P62937 whole entry): as the sequence (P62937 whole entry) above
Excerpt: as §1, §2, §3
as §2, with “BRAF^RBDD” for “BRAF^RBD”

[9] = read-out: KRAS G13C FRET data, IC50
[10] = read-out: KRAS G12C FRET data, IC50
[11] = KRAS G13C, read-out: KRAS G13C FRET data IC50
[12] = KRAS G12C, read-out: KRAS G12C FRET data IC50

Sequence of KRAS WT (P01116 1-169 isoform P01116-2 limits assumed): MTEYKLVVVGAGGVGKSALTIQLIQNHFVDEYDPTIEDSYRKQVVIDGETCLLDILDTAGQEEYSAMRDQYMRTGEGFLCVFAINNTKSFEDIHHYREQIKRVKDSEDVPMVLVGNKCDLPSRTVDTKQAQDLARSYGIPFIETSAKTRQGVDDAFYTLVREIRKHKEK
Sequence of KRAS WT (P62937 whole entry): as the sequence (P62937 whole entry) above

With `CCn1c(-c2cccnc2[C@H](C)OC)c2c3cc(ccc31)-c1cc(C#N)cc(c1)C[C@H](NC(=O)[C@H](C(C)C)N(C)C(C)=O)C(=O)N1CCC[C@H](N1)C(=O)OCC(C)(C)C2` (atropisomer, axis not shown) [Example A430] as the molecule, how does the IC50 [1] read?
Its IC50 is over 10 µM.

What about the IC50 [2, 9] of the same molecule?
Its IC50 is over 10 µM.

And the IC50 [3, 10]?
The IC50 was over 10 µM.

And the IC50 [4]?
The IC50 was over 10 µM.

And the IC50 [5]?
Its IC50 is over 10 µM.

What about the IC50 [6] of the same molecule?
Its IC50 is over 10 µM.

And the IC50 [7]?
Its IC50 is over 10 µM.

And the IC50 [8]?
The IC50 was over 10 µM.

Which IC50 [1] does the source give for `CO[C@@H](C)c1ncccc1-c1c2c3cc(ccc3n1C)-c1csc(n1)C[C@H](NC(=O)[C@H](C(C)C)N(C)C(C)=O)C(=O)N1CCC[C@H](N1)C(=O)OCC(C)(C)C2` (racemic) [Example A103] here?
Its IC50 is over 10 µM.

What about the IC50 [2, 9] of the same molecule?
Its IC50 is over 10 µM.

What about the IC50 [3, 10] of the same molecule?
The IC50 was over 10 µM.

And the IC50 [4]?
The IC50 was over 10 µM.

And the IC50 [5]?
The IC50 was over 10 µM.

And the IC50 [6]?
Its IC50 is over 10 µM.

And the IC50 [7]?
The IC50 was over 10 µM.

And the IC50 [8]?
The IC50 was over 10 µM.

What does the source list for `CCn1c(-c2cccnc2[C@H](C)OC)c2c3cc(ccc31)-c1cc(O)cc(c1)C[C@H](NS(=O)(=O)CC1CCC3(CNC3)C1)C(=O)N1CCC[C@H](N1)C(=O)OCC(C)(C)C2` (mixture of isomers) [Example A188]?
IC50 [1]: > 10 µM; IC50 [3, 10]: > 10 µM; IC50 [5]: > 10 µM; IC50 [6]: > 10 µM; IC50 [8]: > 10 µM

For `CCn1c(-c2cccnc2[C@H](C)OC)c2c3cc(ccc31)-c1cc(O)cc(c1)C[C@H](NS(=O)(=O)N1CCN(C)CC1)C(=O)N1CCC[C@H](N1)C(=O)OCC(C)(C)C2` (racemic) [Example A193], which IC50 [1] is on record?
Its IC50 is over 10 µM.

And the IC50 [2, 9]?
The IC50 was over 10 µM.

And the IC50 [3, 10]?
Its IC50 is over 10 µM.

What about the IC50 [4] of the same molecule?
The IC50 was over 10 µM.

And the IC50 [5]?
Its IC50 is over 10 µM.

And the IC50 [6]?
The IC50 was over 10 µM.

What about the IC50 [7] of the same molecule?
Its IC50 is over 10 µM.

What about the IC50 [8] of the same molecule?
The IC50 was over 10 µM.

Which IC50 [1] does the source give for `C=CC(=O)N1CC(OC[C@H](C(=O)N[C@H]2Cc3cccc(c3)-c3ccc4c(c3)c(c(-c3cccnc3[C@H](C)OC)n4CC)CC(C)(C)COC(=O)[C@@H]3CCCN(N3)C2=O)C(C)C)C1` (racemic) [Example A484] here?
Its IC50 is over 10 µM.

What about the IC50 [7] of the same molecule?
Its IC50 is over 10 µM.

What about the IC50 [8] of the same molecule?
Its IC50 is 1 to 10 µM.

What does the source list for `CCC(=O)N1CC[C@H](C(=O)N(C)[C@H](C(=O)N[C@H]2Cc3cc(O)cc(c3)-c3ccc4c(c3)c(c(-c3ccccc3CCOC)n4CC)CC(C)(C)COC(=O)[C@@H]3CCCN(N3)C2=O)C(C)C)C1` [Example A34]?
IC50 [1]: 1 to 10 µM; IC50 [2, 9]: 1 to 10 µM; IC50 [3, 10]: 0.1 to 1 µM; IC50 [5]: 1 to 10 µM; IC50 [6]: 1 to 10 µM; IC50 [7]: 1 to 10 µM

How did the IC50 [1] turn out when `CCn1c(-c2ccccc2CCOC)c2c3cc(ccc31)-c1cc(O)cc(c1)C[C@H](NC(=O)[C@H](C(C)C)N(C)C(=O)[C@H]1CCN(C(=O)C#CCN(C)C)C1)C(=O)N1CCC[C@H](N1)C(=O)OCC(C)(C)C2` [Example A038] was run?
The IC50 was 1 to 10 µM and > 10 µM.

What about the IC50 [2, 11] of the same molecule?
The IC50 was 0.1 to 1 µM and 0.01 to 0.1 µM.

What about the IC50 [3, 12] of the same molecule?
Its IC50 is 0.01 to 0.1 µM and < 0.01 µM.

What about the IC50 [4] of the same molecule?
Its IC50 is 1 to 10 µM.

What about the IC50 [5] of the same molecule?
Its IC50 is 1 to 10 µM.

What about the IC50 [6] of the same molecule?
Its IC50 is 1 to 10 µM and > 10 µM.

And the IC50 [7]?
Its IC50 is 1 to 10 µM and > 10 µM.

And the IC50 [8]?
Its IC50 is under 0.01 µM.

Which results are given for `C=CS(=O)(=O)N1CC[C@H](C(=O)N(C)[C@H](C(=O)N[C@H]2Cc3cc(O)cc(c3)-c3ccc4c(c3)c(c(-c3cccnc3COC)n4CC)CC(C)(C)COC(=O)[C@@H]3CCCN(N3)C2=O)C(C)C)C1` [Example A069]?
IC50 [1]: 0.1 to 1 µM; IC50 [2, 11]: 0.01 to 0.1 µM; IC50 [3, 12]: 0.01 to 0.1 µM; IC50 [4]: > 10 µM; IC50 [5]: 1 to 10 µM; IC50 [6]: 1 to 10 µM; IC50 [7]: 0.1 to 1 µM; IC50 [8]: 0.01 to 0.1 µM

`CCn1c(-c2cnccc2COC)c2c3cc(ccc31)-c1cc(O)cc(c1)C[C@H](NC(=O)[C@H](C(C)C)N(C)CC(F)(F)F)C(=O)N1CCC[C@H](N1)C(=O)OCC(C)(C)C2` [Example A77] was tested. Which IC50 [1] did it give?
Its IC50 is over 10 µM.

What about the IC50 [2, 9] of the same molecule?
Its IC50 is 1 to 10 µM.

And the IC50 [3, 10]?
Its IC50 is 1 to 10 µM.

What about the IC50 [4] of the same molecule?
Its IC50 is over 10 µM.

And the IC50 [5]?
Its IC50 is 1 to 10 µM.

And the IC50 [6]?
Its IC50 is over 10 µM.

What about the IC50 [7] of the same molecule?
Its IC50 is over 10 µM.

What about the IC50 [8] of the same molecule?
Its IC50 is over 10 µM.
